Here are results for nine compounds from PubChem BioAssay (NCI).

Common to all, as to assay: inhibition of tumour cell growth, NCI panel, 48 h
The subject of assay [1] is TK-10 renal.
Assay [2] relates to A549 NSCLC.
Assay [3] deals with EKVX NSCLC.
Assay [4] has as its system SF-295 CNS.
Assay [5] deals with CCRF-CEM leukemia.
Assay [6] relates to MOLT-4 leukemia.
For assay [7], the system named is UO-31 renal.
Assay [8] concerns M14 melanoma.
The test system of assay [9] is OVCAR-4 ovarian.
The test system of assay [10] is SF-539 CNS.

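Test compounds were applied to cells in 96-well plates for 48 hours at 5 doses. TGI: total growth inhibition.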

`Cc1ccc(S(=O)(=O)Nc2nc3ccccc3c(=O)n2C2CCCCC2)cc1`: the TGI in assay [1], in [2], in [3], in assay [4], in assay [5] and in assay [6] was above 100 µM throughout. The TGI in assay [7], in [8], in [9] and in assay [10] was above 100 µM in each case.

As for `CCCN=C1Nc2ccccc2[C@@H]2N(C)c3ccccc3C(C)C[C@]12C` (stereo not given in full), the TGI in assay [1] was 34.2 µM; in assay [2], above 100 µM; in assay [3], above 100 µM; in [4] it was 30.9 µM; in [5], 62.9 µM; in assay [6], 45.7 µM. Further, the TGI stood at 98.9 µM in [7], 33 µM in assay [8], 23.4 µM in assay [9] and 30.5 µM in assay [10].

For the compound `COc1cc(CCNC2=CC(=O)c3cccnc3C2=O)ccc1O`, the TGI in assay [1] is 30.5 µM; in [2], 3.27 µM; in assay [3], 11.5 µM; in assay [4], 2.6 µM; in assay [5], 25.9 µM; in assay [6] it was 18.2 µM. Also, the TGI in [7] was determined as 2.83 µM; in assay [8] it was 2.98 µM; in [9], 3.87 µM; in assay [10], 3.04 µM.

Consider `COC(=O)c1ccc(CCC2=CC(=O)C(Br)=CC2=O)cc1`, for which the TGI was 31.1 µM in assay [1]; 36.9 µM in assay [2]; 38.7 µM in assay [3]; 37.4 µM in assay [4]; 0.887 µM in assay [5]; 7.32 µM in [6]. Also, the TGI in [7] was 29.2 µM; in assay [8] it was 28.3 µM; in assay [9] it was 30.9 µM; in [10], 31.8 µM.

Regarding `COc1ccc(/C=C2\Sc3nnc(C)n3N=C2c2cc(F)c(Cl)cc2Cl)cc1OC`, the TGI is 32.8 µM in assay [1]; 56.2 µM in assay [2]; 22.7 µM in assay [3]; 53.6 µM in assay [4]; above 100 µM in assay [5]; above 100 µM in [6]. Moreover, the TGI in [7] is 22.6 µM; in assay [8] it was 27.5 µM; in assay [9] it was 28.8 µM; in assay [10], 37.7 µM.

As to `O=c1[nH]nc(-c2ccc([N+](=O)[O-])cc2)n1/N=C/c1ccc([N+](=O)[O-])cc1`, the TGI in assay [1], in assay [2], in [3], in assay [4], in assay [5] and in assay [6] was above 100 µM each time. The TGI in assay [7], in assay [8], in assay [9] and in [10] was above 100 µM throughout.

`Cc1c(C)c2c(c(N)c1C#N)C(=O)N(OS(=O)(=O)c1ccccc1)C2=O`: the TGI was 37.2 µM in assay [1]; 32.1 µM in [2]; 37.4 µM in assay [3]; above 100 µM in assay [4]; above 100 µM in assay [5]; 87 µM in assay [6]. The TGI is above 100 µM in assay [7], 41.6 µM in [8], 41.3 µM in assay [9] and 34.2 µM in assay [10].

For `O=C1OC(C2Cc3ccccc3C2=O)c2ccccc21` (stereo not given), the TGI in assay [1], in assay [2], in [3], in [4], in [5] and in assay [6] was above 100 µM each time. For the same compound, the TGI in assay [7], in assay [8], in [9] and in assay [10] was above 100 µM in each case.

As for `Cc1ccc(C(=O)Cc2nc3ncccc3[nH]c2=O)cc1`, the TGI in assay [1] is 57.4 µM; in assay [2], 26.7 µM; in assay [3], above 100 µM; in [4] it was above 100 µM; in assay [5], above 100 µM; in [6] it was above 100 µM. For the same compound, the TGI in assay [7] was above 100 µM; in [8] it was above 100 µM; in [9] it was 84 µM; in [10], 74.9 µM.
